Test results from ChEMBL document CHEMBL3244356, “Synthesis of some pentazocine metabolites and related compounds” (1977).
The source made the active and inactive calls. The calls are words filed in the database; no cut-off is given here.

How the values were obtained:
Rattus norvegicus [1] = species: Rattus norvegicus; experiment: Inhibition of meperidine-induced antinociceptive activity in rat by D'Amour-Smith thermal stimulus test; format: functional
Rattus norvegicus [2] = species: Rattus norvegicus; experiment: Antinociceptive activity in rat assessed as protection from p-phenylquinone-induced writhing; format: functional
Rattus norvegicus [3] = experiment: Antinociceptive activity in rat at 120 mg/kg, sc by D'Amour-Smith thermal stimulus test; format: functional, organism-based; design: dose 120 mg/kg
Rattus norvegicus [4] = experiment: Inhibition of meperidine-induced antinociceptive activity in rat at 80 mg/kg, sc by D'Amour-Smith thermal stimulus test; format: functional, organism-based; design: dose 80 mg/kg
Rattus norvegicus [5] = experiment: Antinociceptive activity in rat assessed as protection from p-phenylquinone-induced writhing at 100 mg/kg, sc; format: functional, organism-based; design: dose 100 mg/kg
Rattus norvegicus [6] = experiment: Inhibition of meperidine-induced antinociceptive activity in rat at 40 mg/kg, sc by D'Amour-Smith thermal stimulus test; format: functional, organism-based; design: dose 40 mg/kg
Rattus norvegicus [7] = experiment: Antinociceptive activity in rat at 60 mg/kg, sc by D'Amour-Smith thermal stimulus test; format: functional, organism-based; design: dose 60 mg/kg

SMILES | AD50 (Rattus norvegicus [1]) | ED50 (Rattus norvegicus [2]) | Activity (Rattus norvegicus [3]) | also measured
C/C(=C\CN1CC[C@@]2(C)c3cc(O)ccc3C[C@@H]1[C@@H]2C)CO (racemic) | >320 mg/kg | 37 mg/kg |  | 
CCOC(=O)CN1CC[C@@]2(C)c3cc(O)ccc3C[C@@H]1[C@@H]2C (racemic) | 66 mg/kg |  | inactive | 
CC(=O)CCN1CC[C@@]2(C)c3cc(O)ccc3C[C@@H]1[C@@H]2C (racemic) | 1.7 mg/kg | 22 mg/kg | inactive | 
C[C@H]1[C@H]2Cc3ccc(O)cc3[C@]1(C)CCN2CCC(C)(C)O (racemic) |  | 37 mg/kg | inactive | inhibition (Rattus norvegicus [4]): inactive
CC(C)C(=O)CN1CC[C@@]2(C)c3cc(O)ccc3C[C@@H]1[C@@H]2C (racemic) | 2.8 mg/kg |  |  | 
C/C(=C\CN1CC[C@@]2(C)c3cc(O)ccc3C[C@@H]1[C@@H]2C)C(=O)O (racemic) | inactive |  |  | Activity (Rattus norvegicus [5]): inactive
C[C@H]1[C@H]2Cc3ccc(O)cc3[C@]1(C)CCN2CC(=O)O (racemic) |  |  |  | inhibition (Rattus norvegicus [6]): inactive; Activity (Rattus norvegicus [7]): inactive
CC(C)=CCN1CC[C@]2(C)c3cc(O)ccc3C[C@H]1[C@H]2C [(+)-PENTAZOCINE] | 3.9 mg/kg | 2.3 mg/kg | inactive | 
